Results as given in paper PMC10539501 (Nature Communications, 2023).
Starred links: 1 amine or outer side, 2 acyl side, 3 side chain; linkers in the order of their positions; H or OH if unused. Non-standard residues stand in square brackets, D forms with d. Residues, ends and D or L forms follow the SMILES beside them. X3 = CC(C)C[C@H](N[*:1])C(=S)N[C@H](CC(C)C)C(=O)[*:2]

Legend:
[1] = HDX of amide protons by NMR in DMSO-d6:D2O (8:2); conditions: HDX by NMR, 20% D2O in DMSO-d6
Experimental: (§1) As hydrogen bonding and solvation of NH groups play an important role in the permeability of macrocycles, we determined the solvent accessibility of individual amide protons in 10 and 10a–10f by hydrogen-deuterium exchange (HDX) through NMR spectroscopy (Figs. 2a–c).
(§2) Spectra were recorded on a Bruker AV 500 MHz spectrometer at 25 °C.

physchem = conditions: pH 7.4
in vitro [2] = conditions: human, microsomes
Experimental: (§3) A stability assessment of the peptides was done in simulated gastric (SGF) and intestinal (SIF) fluids and human liver microsomes. The degradation kinetics of the aliquoted samples at desired time points were analyzed through RP-HPLC.

[3] = Retention in hydrophobic C18 column by HPLC; conditions: Supplementary Fig 3d, logD7.4 vs tR
[4] = rat, in vivo, po, 10 mg/kg
Experimental: (§4) All animals were housed individually in the animal facility at Anthem Biosciences Pvt. Ltd and were acclimatized for 3 days. All animals were fasted overnight before dosing, whereas access to water was provided ad libitum. Peptides were administered orally and via s.c. route and blood samples were collected at different time points through a jugular vein catheter.

in vitro [5] = conditions: both, human, plasma
Experimental: (§5) Blood was freshly drawn from three healthy adults, two male and one person of 26–28 year old. […] The plasma was separated by centrifugation. […] For checking metabolic stability, the required volume of plasma was pre-incubated at 37 °C prior to the experiment for 2 min, followed by spiking with the peptides. At different time points, plasma was aliquoted. The supernatant was separated and used for RP-HPLC quantification. Rapid Equilibrium Dialysis (RED) assay was performed to assess the plasma protein binding of the peptides following the supplier’s protocol.

pepsin = pepsin (Sus scrofa, UniProt P00791); test: in vitro; conditions: simulated gastric fluid, pH 1.2
Experimental: as §3

Caco-2 cells = test: in vitro; format: in vitro ADME, human; conditions: Caco-2
Experimental: (§6) The Caco-2 cell (HTB-37^TM from ATCC, procured from NCCS, Pune) monolayer was washed and pre-incubated at 37 °C and 5% CO2 for 30 min with HBSS-HEPES buffer containing 1% DMSO prior to experimentation. The assay was performed 21 days post-seeding of cells. TEER values were measured before starting and after the completion of the assay. Acceptor and donor well concentrations of the peptides and controls were assessed through LC-MS/MS.

in vitro [6] = format: in vitro ADME, human
Experimental: as §6

[7] = format: physicochemical
[8] = HDX of amide protons by NMR in CDCl3:CD3OD (8:2)
Experimental: as §1, §2

in vitro [9] = conditions: both, human, plasma; remark: listed apart in the source
Experimental: as §5

[10] = format: physicochemical; remark: listed apart in the source
[11] = PAMPA passive permeability; format: in vitro ADME;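 further: passive permeability across an artificial membrane in 96-well pre-coated PAMPA plates, which lack transporters and efflux systems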
Experimental: Encouraged by this, the passive permeability of the analogs was evaluated using an artificial membrane (PAMPA), which measures permeability of compounds in the absence of transporters and efflux systems[32].
96-well BD Corning® pre-coated PAMPA plates were used following the supplier’s protocol, details in Supplementary Information.

in vitro [12] = conditions: pig, simulated intestinal fluid
Experimental: (§7) We next assessed the stability of the macrocyclic peptides in Simulated Intestinal Fluid (SIF)[42], comprising of pancreatin, which is a mixture of several proteases produced by the exocrine cells of the porcine pancreas.
as §3

in vivo = conditions: male, Wistar, rat
Experimental: as §4

[13] = 20% CD3OD in CDCl3, % remaining after 24 hours
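Wherever Papp A-B avg (second block) is given: Caco-2 monolayers used 21 days after seeding in HBSS-HEPES buffer with 1% DMSO, donor and acceptor levels quantified by LC-MS/MS, TEER checked before and after.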
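Wherever Papp A-B set 1 (second block) is given: Caco-2 monolayers used 21 days after seeding in HBSS-HEPES buffer with 1% DMSO, donor and acceptor levels quantified by LC-MS/MS, TEER checked before and after.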
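Wherever Papp A-B set 2 (second block) is given: Caco-2 monolayers used 21 days after seeding in HBSS-HEPES buffer with 1% DMSO, donor and acceptor levels quantified by LC-MS/MS, TEER checked before and after.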
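Wherever Papp B-A avg (second block) is given: Caco-2 monolayers used 21 days after seeding in HBSS-HEPES buffer with 1% DMSO, donor and acceptor levels quantified by LC-MS/MS, TEER checked before and after.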

pepsin, sequence (P00791 60-385): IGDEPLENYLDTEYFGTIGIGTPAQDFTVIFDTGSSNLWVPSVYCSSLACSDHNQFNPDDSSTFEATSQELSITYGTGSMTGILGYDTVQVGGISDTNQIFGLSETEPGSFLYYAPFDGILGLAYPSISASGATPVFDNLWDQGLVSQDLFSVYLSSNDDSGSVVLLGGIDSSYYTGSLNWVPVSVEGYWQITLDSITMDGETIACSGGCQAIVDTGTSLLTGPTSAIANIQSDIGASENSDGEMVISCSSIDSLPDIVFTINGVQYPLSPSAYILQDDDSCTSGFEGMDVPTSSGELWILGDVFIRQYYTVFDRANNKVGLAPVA
Experimental for human liver microsomes: as §3
Experimental for pancreatin: as §7, §3
Experimental for plasma proteins: as §5

- Half-life of D-Leu1 amide proton (HDX) [1]: 1 min
- Half-life of Leu2 amide proton (HDX) [1]: 11.7 h
- Half-life of Leu3 amide proton (HDX) [1]: 13.2 h
- Half-life of Leu6 amide proton (HDX) [1]: 12 h
- Half-life of Tyr5 amide proton (HDX) [1]: 18 h
- logD (physchem): 1.53
- microsomal CLint (in vitro [2]): 33 µL/min/mg
- remaining at 5 min (in vitro [2]): 78%
- remaining at 10 min (in vitro [2]): 71%
- remaining at 20 min (in vitro [2]): 62%
- remaining at 0.5 h (in vitro [2]): 56%
- remaining at 0.75 h (in vitro [2]): 48%
- remaining at 1 h (in vitro [2]): 38%
- tR [3]: 14 min
- AUClast p.o [4]: 120.8 ng·h/mL
- time over which the peptide is detectable in plasma [4]: ≥ 8 h
- fraction unbound (in vitro [5]): 0.02
- Half lives (human liver microsomes): 42.3
- half-life (pepsin): 1.3 h
- remaining at 5 min (pepsin): 78%
- remaining at 10 min (pepsin): 73%
- remaining at 20 min (pepsin): 67%
- remaining at 0.5 h (pepsin): 61%
- remaining at 1 h (pepsin): 54%
- remaining at 2 h (pepsin): 44%
- remaining at 4 h (pepsin): 34%
- remaining at 8 h (pepsin): 24%
- remaining at 12 h (pepsin): 15%
- remaining at 24 h (pepsin): 9%
- Papp A-B avg (second block) (Caco-2 cells): 3.01 ×10⁻⁶ cm/s
- Papp A-B set 1 (second block) (Caco-2 cells): 4.57 ×10⁻⁶ cm/s
- Papp A-B set 2 (second block) (Caco-2 cells): 1.45 ×10⁻⁶ cm/s
- Papp B-A avg (second block) (Caco-2 cells): 41.8 ×10⁻⁶ cm/s
- Papp B-A set 1 (second block) (Caco-2 cells): 39.7 ×10⁻⁶ cm/s
- Papp B-A set 2 (second block) (Caco-2 cells): 43.9 ×10⁻⁶ cm/s
- Papp A→B (in vitro [6]; Caco-2, Papp A-B + Elacridar avg): 6.8 ×10⁻⁶ cm/s
- Papp A→B (in vitro [6]; Caco-2, Papp A-B avg): 3.01 ×10⁻⁶ cm/s
- Papp B→A (in vitro [6]; Caco-2, Papp B-A + Elacridar avg): 8.9 ×10⁻⁶ cm/s
- Papp B→A (in vitro [6]; Caco-2, Papp B-A avg): 41.8 ×10⁻⁶ cm/s
- Protein binding set1 (plasma proteins): 100%
- Protein binding set2 (plasma proteins): 100%
- Protein binding set3 (plasma proteins): 95%
- logD heptane ethylene glycol [7]: 1.08
- Half-life of D-Leu1 amide proton (HDX) ([8]; 20% CD3OD in CDCl3): 0.167 h
- Half-life of Leu2 amide proton (HDX) ([8]; 20% CD3OD in CDCl3): 8.33 h
- Half-life of Leu3 amide proton (HDX) ([8]; 20% CD3OD in CDCl3): 3.27 h
- Half-life of Leu6 amide proton (HDX) ([8]; 20% CD3OD in CDCl3): > 24 h
- Half-life of Tyr5 amide proton (HDX) ([8]; 20% CD3OD in CDCl3): > 24 h
- % intact NH, Leu6 [8, 13]: 52%
- % intact NH, Tyr5 [8, 13]: 67%
- half-life (in vitro [9]): 18 h
- remaining at 1 h (in vitro [9]): 92%
- remaining at 3 h (in vitro [9]): 87%
- remaining at 5 h (in vitro [9]): 84%
- remaining at 7 h (in vitro [9]): 79%
- remaining at 9 h (in vitro [9]): 63%
- remaining at 12 h (in vitro [9]): 54%
- remaining at 24 h (in vitro [9]): 38%
- remaining at 36 h (in vitro [9]): 22%
- remaining at 48 h (in vitro [9]): 25%
- remaining at 60 h (in vitro [9]): 26%
- remaining at 72 h (in vitro [9]): 21%
- % solubility [10]: 23%
- Pe Avg [11]: 7.3 ×10⁻⁶ cm/s
- Pe set1 [11]: 7.27 ×10⁻⁶ cm/s
- Pe set2 [11]: 9.86 ×10⁻⁶ cm/s
- Pe set3 [11]: 4.7 ×10⁻⁶ cm/s
- Papp ([11]; Pe Avg): 7.3 ×10⁻⁶ cm/s
- half-life (in vitro [12]): 2.1 h
- remaining at 10 min (in vitro [12]): 80.9%
- remaining at 0.5 h (in vitro [12]): 67.2%
- remaining at 1 h (in vitro [12]): 56.5%
- remaining at 2 h (in vitro [12]): 48.1%
- remaining at 4 h (in vitro [12]): 42.9%
- remaining at 8 h (in vitro [12]): 31.7%
- remaining at 12 h (in vitro [12]): 24.6%
- remaining at 24 h (in vitro [12]): 17.2%
- AUC(0-t) (in vivo; iv): 390 ng·h/mL
- Cmax (in vivo; iv): 580 ng/mL
- MRT (in vivo; iv): 1.1 h
- Vd (in vivo; iv): 3.2 L/kg
- clearance (in vivo; iv): 42.2 mL/min/kg
- bioavailability (in vivo; po): 3.1%
- AUC(0-t) (in vivo; po, 10 mg/kg): 121 ng·h/mL
- Cmax (in vivo; po, 10 mg/kg): 61.7 ng/mL
- MRT (in vivo; po, 10 mg/kg): 2.1 h
- level at 3 h (in vivo; po, 10 mg/kg): 13.1 ng/mL
- Half lives (SIF) Avg (pancreatin): 128 min
- Half lives (SIF) set1 (pancreatin): 184 min
- Half lives (SIF) set2 (pancreatin): 94 min
- Half lives (SIF) set3 (pancreatin): 108 min
Compound: CC(C)C[C@@H]1NC(=O)[C@@H](CC(C)C)NC(=S)[C@H](CC(C)C)NC(=O)[C@H](Cc2ccc(O)cc2)NC(=O)[C@H]2CCCN2C(=O)[C@H](CC(C)C)NC1=O [10f] (cyclo(LL[dP]Y[X3]))
